Calls of active or inactive are those of the source. The calls are words filed in the database; no cut-off is given here.
Assays:
[1] = Metal chelating activity assessed as Fe2+-compound complex fromation incubated for 5 mins in presence of ferrous chloride hexahydrate followed by ferrozine addition measured after 10 mins
[2] = Metal chelating activity assessed as Fe2+-compound complex fromation at 3 uM incubated for 5 mins in presence of ferrous chloride hexahydrate followed by ferrozine addition measured after 10 mins; assay type: physicochemical
[3] = Neuroprotective activity against H2O2-induced oxidative stress in human SH-SY5Y cells assessed as cell viability at 3 uM preincubated for 24 hrs followed by H2O2 addition for 1 hr measured after 17 hrs by MTT assay relative to control; assay type: functional; details: read-out: Activity
[4] = Neurotoxicity against human SH-SY5Y cells assessed as reduction in cell viability at 3 to 10 uM after 24 hrs by MTT assay; assay type: toxicity, cell-based
[5] = Antioxidant activity assessed as DPPH free radical scavenging activity at 3 uM after 30 mins incubation in dark; assay type: functional
[6] = Antioxidant activity assessed as DPPH free radical scavenging activity after 30 mins incubation in dark; assay type: functional
[7] = target: Serine/threonine-protein kinase mTOR (Homo sapiens) (UniProt P42345); assay: Induction of mTOR phosphorylation in human SH-SY5Y cells at 3 uM preincubated for 24 hrs followed by H2O2 addition for 1 hr by pathscan sandwich immunoassay; assay type: cell-based
[8] = Neuroprotective activity in human SH-SY5Y cells assessed as protection against H2O2-induced oxidative stress at 0.3 uM preincubated for 24 hrs followed by H2O2 addition for 1 hr measured after 17 hrs by MTT assay relative to control; assay type: functional, cell-based
[9] = target: Mitogen-activated protein kinase; ERK1/ERK2 (Homo sapiens) (UniProt P27361+P28482); assay: Induction of ERK1/2 phosphorylation in human SH-SY5Y cells at 3 uM preincubated for 24 hrs followed by H2O2 addition for 1 hr by pathscan sandwich immunoassay; assay type: cell-based
Chain of Mitogen-activated protein kinase; ERK1/ERK2 (Homo sapiens) (P27361 whole entry, looked up): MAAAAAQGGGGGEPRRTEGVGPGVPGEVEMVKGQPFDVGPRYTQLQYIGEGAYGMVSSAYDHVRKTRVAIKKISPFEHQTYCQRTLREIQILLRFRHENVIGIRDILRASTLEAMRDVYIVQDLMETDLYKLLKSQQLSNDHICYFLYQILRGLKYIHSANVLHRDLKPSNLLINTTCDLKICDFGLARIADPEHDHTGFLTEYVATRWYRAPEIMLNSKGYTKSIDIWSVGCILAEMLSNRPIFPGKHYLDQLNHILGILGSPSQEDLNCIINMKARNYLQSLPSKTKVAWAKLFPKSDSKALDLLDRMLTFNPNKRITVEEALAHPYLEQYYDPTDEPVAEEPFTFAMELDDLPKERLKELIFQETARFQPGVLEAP
Chain of Mitogen-activated protein kinase; ERK1/ERK2 (Homo sapiens) (P28482 whole entry, looked up): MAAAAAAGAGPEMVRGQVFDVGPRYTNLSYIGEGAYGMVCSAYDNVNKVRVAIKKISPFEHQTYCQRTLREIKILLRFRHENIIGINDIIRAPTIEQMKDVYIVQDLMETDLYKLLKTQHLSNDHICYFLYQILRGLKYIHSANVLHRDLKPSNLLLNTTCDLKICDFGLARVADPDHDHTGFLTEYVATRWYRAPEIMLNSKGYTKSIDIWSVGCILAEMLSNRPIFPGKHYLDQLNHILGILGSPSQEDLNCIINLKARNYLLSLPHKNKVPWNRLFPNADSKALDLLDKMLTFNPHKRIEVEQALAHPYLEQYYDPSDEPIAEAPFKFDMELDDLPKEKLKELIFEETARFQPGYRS

[10] = target: T1, Bcl2-associated agonist of cell death (Homo sapiens) (UniProt Q92934); assay: Induction of BAD phosphorylation in human SH-SY5Y cells at 3 uM preincubated for 24 hrs followed by H2O2 addition for 1 hr by pathscan sandwich immunoassay; assay type: cell-based
T1 sequence (whole entry): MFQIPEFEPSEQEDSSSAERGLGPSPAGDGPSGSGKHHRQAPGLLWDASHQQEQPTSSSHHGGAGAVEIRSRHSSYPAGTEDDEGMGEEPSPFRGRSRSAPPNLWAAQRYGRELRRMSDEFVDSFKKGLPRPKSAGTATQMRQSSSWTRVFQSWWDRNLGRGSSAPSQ

[11] = target: Proline-rich AKT1 substrate 1 (Homo sapiens) (UniProt Q96B36); assay: Induction of PRAS40 phosphorylation in human SH-SY5Y cells at 3 uM preincubated for 24 hrs followed by H2O2 addition for 1 hr by pathscan sandwich immunoassay; assay type: cell-based
SH-SY5Y = assay: Induction of AMPKalpha phosphorylation in human SH-SY5Y cells at 3 uM preincubated for 24 hrs followed by H2O2 addition for 1 hr by pathscan sandwich immunoassay; assay type: cell-based
[12] = Neurotoxicity against human SH-SY5Y cells assessed as reduction in cell viability at 10 uM after 24 hrs by MTT assay; assay type: toxicity, cell-based
[13] = Antioxidant activity assessed as DPPH free radical scavenging activity after 30 mins incubation in dark by UV-Vis spectrophotometric analysis; assay type: functional

Structure (SMILES)	Activity [2]	viability at 3 µM [3]	Activity [4]	Activity [5]	other results
O=C(O)CN(CCN(CC(=O)O)CC(=O)O)CC(=O)O [EDETIC ACID]	6.9%				IC50 [1]: 42 µM
O=c1cc(-c2cccs2)oc2c(O)c(O)ccc12		< 60%			
O=c1cc(-c2ccc(Br)cc2)oc2c(O)c(O)ccc12		84%	Non-Toxic		
Oc1ccc2c(=S)cc(-c3cccs3)oc2c1O		< 60%			
Oc1cc(O)c2c(=S)cc(-c3ccc(O)c(O)c3)oc2c1		67.4 to 73%	Non-Toxic		
O=C1O[C@H]([C@@H](O)CO)C(O)=C1O [ASCORBIC ACID]				1.3%	IC50 [6]: 330 µM
Oc1ccc2c(=S)cc(-c3ccccc3)oc2c1O		72.4%			
O=c1cc(-c2ccc(Cl)cc2)oc2c(O)c(O)ccc12	3.7%	93.4%		1.4%	Activity [7]: Active
Oc1ccc2c(=S)cc(-c3ccc(Cl)cc3)oc2c1O	5%	107%	Non-Toxic	1.7%	Activity [8]: > 70%; Activity [9]: Active; Activity [7]: Active; Activity [10]: Active; Activity [11]: Active; Activity (SH-SY5Y): Active
N#Cc1ccc(-c2cc(=O)c3ccc(O)c(O)c3o2)cc1		84.6%			
Oc1ccc2c(=S)cc(-c3ccc(Br)cc3)oc2c1O	4.4%	97.8%		1.6%	Activity [12]: 52%; Activity [10]: Active
O=c1cc(-c2ccccc2)oc2cc(O)cc(O)c12 [CHRYSIN]		< 50%			
Oc1ccc2c(=S)cc(-c3ccco3)oc2c1O		< 60%			
O=c1cc(-c2ccco2)oc2c(O)c(O)ccc12		< 60%			
Oc1ccc2c(=S)cc(-c3cccnc3)oc2c1O		< 60%			
O=c1cc(-c2ccc(F)cc2)oc2c(O)c(O)ccc12		88.8%	Non-Toxic		
O=c1cc(-c2ccc(O)c(O)c2)oc2cc(O)cc(O)c12 [LUTEOLIN]	3.4%	98.3%		1.9%	
O=c1cc(-c2cccnc2)oc2c(O)c(O)ccc12		< 60%			
N#Cc1ccc(-c2cc(=S)c3ccc(O)c(O)c3o2)cc1	3.9%	106%	Non-Toxic	1.3%	Activity [8]: > 70%; Activity [9]: Active; Activity [7]: Active; Activity (SH-SY5Y): Active
O=c1cc(-c2ccccc2)oc2c(O)c(O)ccc12 [7,8-DIHYDROXYFLAVONE]	3.7%	96.2 to 97%	Non-Toxic	1.4%	Activity [10]: Active; IC50 [13]: 15.5 µM
Oc1cc(O)c2c(=S)cc(-c3ccccc3)oc2c1		< 50%			
Oc1ccc2c(=S)cc(-c3ccc(F)cc3)oc2c1O		97.4%	Non-Toxic		
